One data set concerns the target VZV polymerase (Varicella-zoster virus, UniProt P09252). The data set is described as follows: VZV polymerase assay (Table 1). The class given is biochemical.
For another data set, the target named is HSV polymerase (Human herpesvirus 1, UniProt P04293). The data set is described as follows: HSV polymerase assay (Table 1). It is filed as biochemical.
The target of another data set is T1, HCMV polymerase (Human cytomegalovirus, UniProt P08546).
T1 construct: made in house; host or cells: recombinant baculovirus-infected SF-9 cells
T1 sequence (P08546 whole entry): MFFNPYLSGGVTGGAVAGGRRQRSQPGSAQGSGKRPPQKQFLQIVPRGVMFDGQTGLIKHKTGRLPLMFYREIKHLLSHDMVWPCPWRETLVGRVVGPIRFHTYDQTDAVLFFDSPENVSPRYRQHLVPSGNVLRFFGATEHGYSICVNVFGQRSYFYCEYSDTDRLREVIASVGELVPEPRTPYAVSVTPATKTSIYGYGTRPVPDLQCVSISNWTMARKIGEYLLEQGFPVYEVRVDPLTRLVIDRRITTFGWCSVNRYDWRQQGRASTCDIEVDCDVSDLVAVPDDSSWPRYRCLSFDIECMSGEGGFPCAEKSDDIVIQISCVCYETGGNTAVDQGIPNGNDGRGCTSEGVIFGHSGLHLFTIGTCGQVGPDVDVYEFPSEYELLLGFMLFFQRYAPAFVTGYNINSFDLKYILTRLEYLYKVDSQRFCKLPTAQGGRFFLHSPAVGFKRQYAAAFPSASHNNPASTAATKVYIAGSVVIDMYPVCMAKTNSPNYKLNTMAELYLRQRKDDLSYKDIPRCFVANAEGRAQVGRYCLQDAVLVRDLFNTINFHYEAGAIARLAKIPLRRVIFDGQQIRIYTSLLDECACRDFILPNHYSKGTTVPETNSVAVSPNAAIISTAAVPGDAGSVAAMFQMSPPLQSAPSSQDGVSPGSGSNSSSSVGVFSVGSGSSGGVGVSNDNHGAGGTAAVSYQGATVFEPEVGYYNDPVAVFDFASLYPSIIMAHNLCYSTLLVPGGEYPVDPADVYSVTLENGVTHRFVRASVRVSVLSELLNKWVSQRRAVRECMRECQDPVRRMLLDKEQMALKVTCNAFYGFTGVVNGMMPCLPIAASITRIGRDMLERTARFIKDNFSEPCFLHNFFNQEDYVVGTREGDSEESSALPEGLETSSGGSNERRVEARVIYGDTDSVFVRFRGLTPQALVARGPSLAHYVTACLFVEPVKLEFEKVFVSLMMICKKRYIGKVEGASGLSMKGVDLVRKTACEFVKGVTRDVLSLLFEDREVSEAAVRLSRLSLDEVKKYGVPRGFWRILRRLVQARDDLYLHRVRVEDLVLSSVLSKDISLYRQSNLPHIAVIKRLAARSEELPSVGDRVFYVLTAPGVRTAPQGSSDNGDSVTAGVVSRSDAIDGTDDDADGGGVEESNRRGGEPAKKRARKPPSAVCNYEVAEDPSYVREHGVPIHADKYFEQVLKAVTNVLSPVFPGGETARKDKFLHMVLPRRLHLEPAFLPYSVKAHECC
The data set is described as follows: HCMV polymerase scintillation proximity assay. The class given is biochemical. As for the experimental part: The HCMV polymerase assay is performed using a scintillation proximity assay (SPA) as described in several references, such as N. D. Cook, et al., Pharmaceutical Manufacturing International, pages 49-53 (1992); K Takeuchi, Laboratory Practice, September issue (1992); U.S. Pat. No. 4,568,649 (1986); which are incorporated by reference herein. Reactions are performed in 96-well plates. The assay is conducted in 100 μl volume with 5.4 mM HEPES (pH 7.5), 11.7 mM KCl, 4.5 mM MgCl2, 0.36 mg/ml BSA, and 90 nM ^3H-dTTP. Assays are run with and without CHAPS, (3-[(3-Cholamidopropyl)-dimethylammonio]-1-propane-sulfonate) at a final concentration of 2 mM. HCMV polymerase is diluted in enzyme dilution buffer containing 50% glycerol, 250 mM NaCl, 10 mM HEPES (pH 7.5), 100 μg/ml BSA, and 0.01% sodium azide. The HCMV polymerase, which is expressed in recombinant baculovirus-infected SF-9 cells and purified according to literature procedures, is added at 10% (or 10 μl) of the final reaction volume, i.e., 100 μl. Compounds are diluted in 50% DMSO and 10 μl are added to each well. Control wells contain an equivalent concentration of DMSO. Unless noted otherwise, reactions are initiated via the addition of 6 nM biotinylated poly(dA)-oligo(dT) template/primer to reaction mixtures containing the enzyme, substrate, and compounds of interest. Plates are incubated in a 25° C. or 37° C. H2O bath and terminated via the addition of 40 μl/reaction of 0.5 M EDTA (pH 8) per well. Reactions are terminated within the time-frame during which substrate incorporation is linear and varied depending upon the enzyme and conditions used, i.e., 30 min. for HCMV polymerase. Ten (10) μl of streptavidin-SPA beads (20 mg/ml in PBS/10% glycerol) are added following termination of the reaction. Plates are incubated 10 min. at 37° C., then equilibrated to room temperature, and counted on a Packard Topcount. Linear regressions are performed and IC50's are calculated using computer software.
A modified version of the above HCMV polymerase assay is performed as described above, but with the following changes: Compounds are diluted in 100% DMSO until final dilution into assay buffer. In the previous assay, compounds are diluted in 50% DMSO. 4.5 mM Dithiothreitol (DTT) is added to the polymerase buffer.
All results are listed as Polymerase IC50 (μM) values. In Table 1, the term “n.d.” refers to activity data not determined.
(SPA uses beads or plates that emit light when radiolabelled molecules are held near them.)

Read-outs that look alike come from different tables or passages of the source.

Sequence of HSV polymerase (P04293 whole entry): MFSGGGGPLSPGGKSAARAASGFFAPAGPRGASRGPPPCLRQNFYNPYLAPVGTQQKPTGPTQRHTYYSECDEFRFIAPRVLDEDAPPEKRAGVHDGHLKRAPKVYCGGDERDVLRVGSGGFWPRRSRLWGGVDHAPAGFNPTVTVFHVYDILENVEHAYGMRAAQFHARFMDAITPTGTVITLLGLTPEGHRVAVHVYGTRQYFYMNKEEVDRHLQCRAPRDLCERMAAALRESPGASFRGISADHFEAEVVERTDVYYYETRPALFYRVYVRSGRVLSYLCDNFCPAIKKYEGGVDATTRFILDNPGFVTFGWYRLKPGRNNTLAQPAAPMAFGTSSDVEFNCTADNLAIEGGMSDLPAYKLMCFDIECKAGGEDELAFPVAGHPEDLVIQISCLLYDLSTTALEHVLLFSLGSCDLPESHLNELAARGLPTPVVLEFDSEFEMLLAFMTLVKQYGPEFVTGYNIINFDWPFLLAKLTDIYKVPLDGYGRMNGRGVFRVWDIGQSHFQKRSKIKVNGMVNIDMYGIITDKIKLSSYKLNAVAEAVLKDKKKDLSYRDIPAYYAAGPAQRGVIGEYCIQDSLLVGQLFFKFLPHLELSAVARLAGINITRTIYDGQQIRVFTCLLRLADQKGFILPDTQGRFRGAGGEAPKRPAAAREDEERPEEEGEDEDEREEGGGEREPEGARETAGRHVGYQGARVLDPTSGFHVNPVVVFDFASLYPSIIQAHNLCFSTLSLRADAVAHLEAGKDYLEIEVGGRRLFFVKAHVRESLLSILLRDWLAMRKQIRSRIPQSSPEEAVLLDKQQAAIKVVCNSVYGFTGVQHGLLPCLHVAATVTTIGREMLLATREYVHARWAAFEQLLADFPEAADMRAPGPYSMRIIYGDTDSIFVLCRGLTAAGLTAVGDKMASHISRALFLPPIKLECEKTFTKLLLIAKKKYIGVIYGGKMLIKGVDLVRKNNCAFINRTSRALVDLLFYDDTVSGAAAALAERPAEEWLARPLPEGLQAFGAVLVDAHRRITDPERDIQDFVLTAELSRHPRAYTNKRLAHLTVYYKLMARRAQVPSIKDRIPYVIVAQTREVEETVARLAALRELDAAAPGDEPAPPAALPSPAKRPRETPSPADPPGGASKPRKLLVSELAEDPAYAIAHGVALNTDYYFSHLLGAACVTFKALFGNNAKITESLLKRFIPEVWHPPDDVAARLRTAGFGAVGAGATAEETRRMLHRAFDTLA
Sequence of VZV polymerase (P09252 whole entry): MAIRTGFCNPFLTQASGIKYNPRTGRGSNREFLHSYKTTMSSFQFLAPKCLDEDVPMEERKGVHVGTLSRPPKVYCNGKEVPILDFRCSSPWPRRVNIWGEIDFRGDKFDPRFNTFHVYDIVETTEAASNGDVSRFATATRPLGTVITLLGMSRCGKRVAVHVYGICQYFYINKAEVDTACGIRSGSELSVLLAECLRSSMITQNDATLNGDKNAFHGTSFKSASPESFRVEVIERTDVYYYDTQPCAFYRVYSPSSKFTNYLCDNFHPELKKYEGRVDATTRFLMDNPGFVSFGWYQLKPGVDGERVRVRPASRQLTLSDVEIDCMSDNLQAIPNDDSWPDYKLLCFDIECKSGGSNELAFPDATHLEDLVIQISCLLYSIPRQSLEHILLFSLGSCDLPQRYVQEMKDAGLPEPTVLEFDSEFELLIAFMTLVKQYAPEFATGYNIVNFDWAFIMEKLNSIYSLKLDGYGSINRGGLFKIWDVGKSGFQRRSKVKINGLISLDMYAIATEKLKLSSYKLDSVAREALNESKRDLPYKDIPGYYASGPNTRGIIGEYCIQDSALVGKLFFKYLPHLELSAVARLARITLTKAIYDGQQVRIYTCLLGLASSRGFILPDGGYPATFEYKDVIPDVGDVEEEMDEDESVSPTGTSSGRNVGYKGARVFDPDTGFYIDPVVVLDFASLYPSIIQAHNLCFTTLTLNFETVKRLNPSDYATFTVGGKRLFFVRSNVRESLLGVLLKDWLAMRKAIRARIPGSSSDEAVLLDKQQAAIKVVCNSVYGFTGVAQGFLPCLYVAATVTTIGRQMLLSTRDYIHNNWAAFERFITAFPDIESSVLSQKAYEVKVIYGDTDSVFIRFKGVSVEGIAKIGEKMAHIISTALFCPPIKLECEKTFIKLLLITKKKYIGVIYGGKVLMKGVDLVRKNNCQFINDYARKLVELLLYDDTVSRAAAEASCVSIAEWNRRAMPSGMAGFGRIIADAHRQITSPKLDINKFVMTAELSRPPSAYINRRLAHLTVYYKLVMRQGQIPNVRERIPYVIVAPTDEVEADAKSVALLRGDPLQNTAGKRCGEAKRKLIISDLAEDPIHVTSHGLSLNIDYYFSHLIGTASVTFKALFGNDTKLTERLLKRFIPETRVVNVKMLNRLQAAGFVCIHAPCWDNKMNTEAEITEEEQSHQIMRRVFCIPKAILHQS

For the molecule `COc1cccc([C@H](O)CN(C)Cc2cc3c(=O)c(C(=O)NCc4ccc(Cl)cc4)cn(C)c3s2)c1` (single isomer, unassigned) [Example 6], the 50% inhibitory concentration (IC50) (as a rule, the point on the concentration scale where inhibition reaches its midpoint) on VZV polymerase stood at 90 nM; against HSV polymerase, 160 nM; at HCMV polymerase (read-out: Polymerase IC50 HCMV), 60 nM.

With `CN(Cc1cc2c(=O)c(C(=O)NCc3ccc(Cl)cc3)cn(C)c2s1)C[C@@H](O)c1ccc(C#N)cc1` (single isomer, unassigned) [Example 10], the IC50 on HCMV polymerase (read-out: Polymerase IC50 HCMV) is 340 nM.

In the case of `CN(Cc1cc2c(=O)c(C(=O)NCc3ccc(Cl)cc3)cn(C)c2s1)C[C@@H](O)c1cccc(C#N)c1` (single isomer, unassigned) [Example 11], the IC50 on VZV polymerase came to 110 nM; on HSV polymerase it was 210 nM; on HCMV polymerase (read-out: Polymerase IC50 HCMV), 100 nM.

Consider `CN(Cc1cc2c(=O)c(C(=O)NCc3ccc(Cl)cc3)cn(C)c2s1)C[C@@H](O)c1ccc(N(C)C)cc1` (single isomer, unassigned) [Example 12], for which the values for the half-maximal inhibitory concentration (IC50) against VZV polymerase, against HSV polymerase and on HCMV polymerase (read-out: Polymerase IC50 HCMV) were 230 nM, 620 nM and 210 nM, respectively.

Take `CN(Cc1cc2c(=O)c(C(=O)NCc3ccc(Cl)cc3)cn(C)c2s1)C[C@@H](O)c1ccc(CO)cc1` (single isomer, unassigned) [Example 13]: the values for the IC50 at VZV polymerase, at HSV polymerase and on HCMV polymerase (read-out: Polymerase IC50 HCMV) were 200 nM, 580 nM and 130 nM, respectively.

As for `CN(Cc1cc2c(=O)c(C(=O)NCc3ccc(Cl)cc3)cn(C)c2s1)C[C@@H](O)c1ccc([N+](=O)[O-])cc1` (single isomer, unassigned) [Example 14], the melting point (as a rule, the temperature, or range, at which the solid turns liquid) was in the range of 181 to 183 °C. Further, the IC50 at HSV polymerase amounted to 1720 nM. Moreover, on HCMV polymerase (read-out: Polymerase IC50 HCMV), the IC50 worked out at 620 nM.

Regarding `CN(Cc1cc2c(=O)c(C(=O)NCc3ccc(Cl)cc3)cn(C)c2s1)C[C@@H](O)c1ccc(O)cc1` [Example 1, N-(4-Chlorobenzyl)-2-((((2S)-2-hydroxy-2-(4-hydroxyphenyl)ethyl)(methyl)-amino)methyl)-7-methyl-4-oxo-4,7-dihydrothieno[2,3-b]pyridine-5-carboxamide], the IC50 on VZV polymerase is 80 nM; on HSV polymerase it was 200 nM; at HCMV polymerase (read-out: Polymerase IC50 HCMV), 50 nM.

As to `CN(Cc1cc2c(=O)c(C(=O)NCc3ccc(Cl)cc3)cn(C)c2s1)C[C@@H](O)c1ccccc1` [Example 2, N-(4-Chlorobenzyl)-2-((((2S)-2-hydroxy-2-phenylethyl)(methyl)amino)methyl)-7-methyl-4-oxo-4,7-dihydrothieno[2,3-b]pyridine-5-carboxamide], the melting point lay in the range of 162 to 164 °C. On VZV polymerase, the IC50 was found to be 200 nM. In addition, on HSV polymerase, the IC50 is 400 nM. At HCMV polymerase, this molecule had an IC50 of […].

Regarding `CN(Cc1cc2c(=O)c(C(=O)NCc3ccc(Cl)cc3)cn(CC(O)CO)c2s1)C[C@@H](O)c1ccccc1` (stereo partly drawn) [Example 3, N-(4-Chlorobenzyl)-7-(2,3-dihydroxypropyl)-2-((((2S)-2-hydroxy-2-phenylethyl)-(methyl)amino)methyl)-4-oxo-4,7-dihydrothieno[2,3-b]pyridine-5-carboxamide], the IC50 on HCMV polymerase (read-out: Polymerase IC50 HCMV) turned out to be 1770 nM.

`CN(Cc1cc2c(=O)c(C(=O)NCc3ccc(Cl)cc3)cn(CCCO)c2s1)C[C@@H](O)c1ccccc1` [Example 4, N-(4-chlorobenzyl)-2-((((2S)-2-hydroxy-2-phenylethyl)(methyl)amino)methyl)-7-(3-hydroxypropyl)-4-oxo-4,7-dihydrothieno[2,3-b]pyridine-5-carboxamide]: the concentration for half-maximal inhibition (IC50) at HCMV polymerase is 1400 nM.

Consider `CN(Cc1cc2c(=O)c(C(=O)NCc3ccc(Cl)cc3)cn(CCO)c2s1)C[C@@H](O)c1ccccc1` [Example 5, N-(4-Chlorobenzyl)-7-(2-hydroxyethyl)-2-((((2S)-2-hydroxy-2-phenylethyl)-(methyl)amino)methyl)-4-oxo-4,7-dihydrothieno[2,3-b]pyridine-5-carboxamide], for which the IC50 on HCMV polymerase (read-out: Polymerase IC50 HCMV) turned out to be 2020 nM.

Molecule `CCn1cc(C(=O)NCc2ccc(Cl)cc2)c(=O)c2cc(CN(C)C[C@@H](O)c3ccccc3)sc21` [Example 7, N-(4-Chlorobenzyl)-7-ethyl-2-((((2S)-2-hydroxy-2-phenylethyl)(methyl)amino)methyl)-4-oxo-4,7-dihydrothieno[2,3-b]pyridine-5-carboxamide] had a melting point of 100 to 102 °C. Moreover, the half-inhibitory concentration (IC50) on HCMV polymerase (read-out: Polymerase IC50 HCMV) is 470 nM.

For the molecule `CCCn1cc(C(=O)NCc2ccc(Cl)cc2)c(=O)c2cc(CN(C)C[C@@H](O)c3ccccc3)sc21` [Example 8, N-(4-Chlorobenzyl)-2-((((2S)-2-hydroxy-2-phenylethyl)(methyl)amino)methyl)-4-oxo-7-propyl-4,7-dihydrothieno[2,3-b]pyridine-5-carboxamide], the melting point lay within 45 to 48 °C. The half-inhibitory concentration (IC50) at HCMV polymerase (read-out: Polymerase IC50 HCMV) came to 620 nM.

With `COCCn1cc(C(=O)NCc2ccc(Cl)cc2)c(=O)c2cc(CN(C)C[C@@H](O)c3ccccc3)sc21` [Example 9, N-(4-Chlorobenzyl)-2-((((2S)-2-hydroxy-2-phenylethyl)(methyl)amino)methyl)-7-(2-methoxyethyl)-4-oxo-4,7-dihydrothieno[2,3-b]pyridine-5-carboxamide], the melting point fell in the range of 105 to 106 °C. Also, the IC50 on HCMV polymerase (read-out: Polymerase IC50 HCMV) turned out to be 320 nM.

The values are drawn from patent US20040116464A1, “Aryl-ethanolamine derivatives as antiviral agents” (priority 2002, published 2004).
